Earlier results as cited in patent US20220000750A1, “THE PROCESS FOR THE PREPARATION AND USE OF HAIR TREATMENT COMPOSITIONS CONTAINING ORGANIC C1-C6 ALKOXY SILANES” (Henkel AG & Co. KGaA, priority 2019, published 2022).

Settings: 25° C.

solubility in water (in words) | Compound | solubility in water
 | CCN(Cc1cccc(S(=O)(=O)[O-])c1)c1ccc(C(=C2C=CC(=[N+](CC)Cc3cccc(S(=O)(=O)[O-])c3)C=C2)c2ccccc2S(=O)(=O)[O-])cc1.[Na+].[Na+] [Acid Blue 9] | more than 20 % by weight
 | O=S(=O)([O-])c1ccc(N=Nc2c(O)ccc3ccccc23)cc1.[Na+] [Acid Orange 7, sodium salt of 4-[(2-hydroxy-1-naphthyl)azo]benzene sulphonate] | more than 7 g/L
 | Nc1cc(S(=O)(=O)[O-])cc2cc(S(=O)(=O)[O-])c(N=Nc3ccccc3)c(O)c12.[Na+].[Na+] [Acid Red 33, diantrium salt of 5-amino-4-hydroxy-3-(phenylazo)-naphthalene-2,7-disulphonate] | 2500 µg/mL
 | O=C([O-])c1c(Cl)c(Cl)c(Cl)c(Cl)c1-c1c2c(Br)cc(=O)c(Br)c-2oc2c(Br)c(O)cc(Br)c12.O=C([O-])c1c(Cl)c(Cl)c(Cl)c(Cl)c1-c1c2c(Br)cc(=O)c(Br)c-2oc2c(Br)c(O)cc(Br)c12.[Na+].[Na+] [Acid Red 92, disodium salt of 3,4,5,6-tetrachloro-2-(1,4,5,8-tetrabromo-6-hydroxy-3-oxoxanthen-9-yl)benzoic acid] | greater than 10 g/L
highly soluble | O=C([O-])C1=NN(c2ccc(S(=O)(=O)[O-])cc2)C(=O)C1N=Nc1ccc(S(=O)(=O)[O-])cc1.[Na+].[Na+].[Na+] (centres unmarked) [Acid Yellow 23, trisodium salt of 4,5-dihydro-5-oxo-1-(4-sulfophenyl)-4-((4-sulfophenyl)azo)-1H-pyrazole-3-carboxylic acid] | 
